The values below are quoted from earlier work in patent US12611407B2, “Gastro-resistant high-strength formulation containing posaconazole” (Alfred E. Tiefenbacher (GmbH & Co. KG), priority 2020, dated 2026).

Assay in series [1]: not given
The source holds these as a separate data set.

For `CC[C@@H]([C@H](C)O)n1ncn(-c2ccc(N3CCN(c4ccc(OC[C@@H]5CO[C@@](Cn6cncn6)(c6ccc(F)cc6F)C5)cc4)CC3)cc2)c1=O` [Posaconazole], the aqueous solubility entry is “low aqueous solubility”.

With `CC[C@@H]([C@H](C)O)n1ncn(-c2ccc(N3CCN(c4ccc(OC[C@@H]5CO[C@@](Cn6cncn6)(c6ccc(F)cc6F)C5)cc4)CC3)cc2)c1=O` [form IV, posaconazole], the “water solubility compared with form I” value is “better water solubility”. Moreover, the “stability in an aqueous suspension compared with form I” value in series [1] (aqueous suspension) is “better stability in an aqueous suspension”.

Regarding `CC[C@@H]([C@H](C)O)n1ncn(-c2ccc(N3CCN(c4ccc(OC[C@@H]5CO[C@@](Cn6cncn6)(c6ccc(F)cc6F)C5)cc4)CC3)cc2)c1=O` [form Y, posaconazole], the “water solubility compared with form I” value is reported as “better water solubility”. In addition, the “stability of the crystalline form” value in series [1] (normal storage conditions or specific stress conditions) is “as stable as form I”.
